{"source": "patent US20200378993A1", "about": "“MEDICAL USES OF APOLIPOPROTEIN A AND ACTIVATORS THEREOF” (FUNDACIÓN IMDEA ALIMENTACIÓN, priority 2017, published 2020)", "key": {"DLD1 cells": {"test_system": "DLD1 cells", "assay": "Cell viability and proliferation assay (XCELLigence)", "type": "cell-based, human", "method": "Cell viability and proliferation assays were carried out by means of XCELLigence technology (ACEA Biosciences, Inc.) following the manufacturer's indications. Migration and invasion assays were carried out in Corning® BioCoat™ Control plates (#354578) and Corning® BioCoat™ Matrigel plates (#354480), respectively, following the manufacturer's indications. For the rescue assays, the cells were treated for 72 hours with 30 μM apabetalone (RVX-208; Biovision). Antibodies: ABCA1 (Ab18180, Abcam. 1:500); caveolin-1 (Ab2910, Abcam. 1:1000); α-tubulin (T9026, Sigma 1:1000). The DLD1 cells correspond to a human colorectal cancer-derived adherent epithelial cell line (ATCC® CCL-221™). The stable cell lines capable of overexpressing ABCA1 were obtained by means of transduction with genetically modified lentivirus.\nFollowing the same treatment regimen, the inventors carried out migration and invasion assays.\nThe same assays were repeated by replacing ApoA1 with a treatment with RVX-208. In this case, DLD1 cells were pre-treated for 72 hours before the start of the experiment with RVX-208 at a concentration of 30 μm and were subjected to a treatment with 15 μM of RVX-208 during the development of the experiments.\nFor the purpose of confirming that the effects of RVX-208 in cell phenotype recovery were due to the increase in ApoA-1 expression, the inventors inhibited the expression of said protein by means of transfection of a complementary small RNA, ShApoA1 (FIG. 9). Twenty-four hours after transfection with ShApoA1 expression vector, the inventors started treatment with 30 μM of RVX-208. Cell viability and proliferation in DLD1 cells (D_NoORF) and D1D1 cell lines expressing increased ApoA1 levels (D_ApoA1 ) were analyzed with the xCELLigence system."}, "caveolin-1": {"test_system": "caveolin-1", "assay": "Caveolin-1 immunodetection by Western blot", "type": "cell-based, human", "conditions": "RVX-208 (30 μM) versus DMSO carrier", "method": "FIG. 7. A) Proliferation curve in a viability assay carried out by means of XCELLigence technology. Growth of DLD1 cells treated with DMSO as the drug carrier and with Rvx-208 (30 μM). The significant differences existing in the slope of the graph, and therefore in the growth dynamics of the treated cells are shown in the right panel (****p-value<0.0001). B) Migration and invasion assays. The method followed was the same as the one described in FIG. 2 (*p-value=0.0407; ****p-value<0.0001). C) Expression levels of proteins E-cadherin and Vimentin in the presence and absence of Rvx-208. Analysis performed by means of quantitative PCR. The relative expression levels normalized with respect to the untreated control are shown. D) ABCA1, ApoA1, caveolin-1, and α-tubulin immunodetection by means of Western blot. α-tubulin acts as load control. The results of the cells treated with Rvx-208 (30 μM) or with the DMSO carrier are shown. E) Cholesterol flux in cells treated with Rvx-208. […]\nThe inventors were able to confirm said results based on the treatment of DLD1 cells expressing ABCA1 with RVX-208 under the conditions already described in detail in Example 3. […] The levels of caveolin-1, a protein whose increased levels have been associated with increases in cell migration and invasion, were also analyzed in this experiment."}}}
{"smiles": "COc1cc(OC)c2c(=O)[nH]c(-c3cc(C)c(OCCO)c(C)c3)nc2c1", "note": "[RVX-208, 2-(4-(2-hydroxyethoxy)-3,5-dimethylphenyl)-5,7-dimethoxyquinazolin-4(3H)-one]", "values": [{"measurement": "proliferation indices", "setting": "DLD1 cells; 30 μM RVX-208, ApoA1 expression not inhibited (Scr+Rvx-208), DLD1 cells (D_NoORF)", "value": "significantly lower"}, {"measurement": "proliferative capacity", "setting": "DLD1 cells; RVX-208 pre-treatment 72 hours at 30 μm, 15 μM during experiment, DLD1 cells", "value": "significant decrease in proliferative capacity"}, {"measurement": "caveolin-1 protein levels", "setting": "caveolin-1", "value": "capable of reducing the levels of said protein"}]}
